{"source": "patent US20060034872A1", "about": "“Compositions and methods for preventing abuse of orally administered medications” (priority 2002, published 2006)", "origin": "cited, not measured here", "key": {"bronchial VR1": {"molecular_target": "T1, bronchial VR1 (Homo sapiens, UniProt Q8NER1)", "T1 construct": "selective stimulation of the VR1 receptors of nociceptive afferent neurons; from tissue; host or cells: nociceptive afferent neurons in vivo (skin, oral/nasal mucosa, airways, paravenous tissue)", "T1 sequence (Q8NER1 whole entry)": "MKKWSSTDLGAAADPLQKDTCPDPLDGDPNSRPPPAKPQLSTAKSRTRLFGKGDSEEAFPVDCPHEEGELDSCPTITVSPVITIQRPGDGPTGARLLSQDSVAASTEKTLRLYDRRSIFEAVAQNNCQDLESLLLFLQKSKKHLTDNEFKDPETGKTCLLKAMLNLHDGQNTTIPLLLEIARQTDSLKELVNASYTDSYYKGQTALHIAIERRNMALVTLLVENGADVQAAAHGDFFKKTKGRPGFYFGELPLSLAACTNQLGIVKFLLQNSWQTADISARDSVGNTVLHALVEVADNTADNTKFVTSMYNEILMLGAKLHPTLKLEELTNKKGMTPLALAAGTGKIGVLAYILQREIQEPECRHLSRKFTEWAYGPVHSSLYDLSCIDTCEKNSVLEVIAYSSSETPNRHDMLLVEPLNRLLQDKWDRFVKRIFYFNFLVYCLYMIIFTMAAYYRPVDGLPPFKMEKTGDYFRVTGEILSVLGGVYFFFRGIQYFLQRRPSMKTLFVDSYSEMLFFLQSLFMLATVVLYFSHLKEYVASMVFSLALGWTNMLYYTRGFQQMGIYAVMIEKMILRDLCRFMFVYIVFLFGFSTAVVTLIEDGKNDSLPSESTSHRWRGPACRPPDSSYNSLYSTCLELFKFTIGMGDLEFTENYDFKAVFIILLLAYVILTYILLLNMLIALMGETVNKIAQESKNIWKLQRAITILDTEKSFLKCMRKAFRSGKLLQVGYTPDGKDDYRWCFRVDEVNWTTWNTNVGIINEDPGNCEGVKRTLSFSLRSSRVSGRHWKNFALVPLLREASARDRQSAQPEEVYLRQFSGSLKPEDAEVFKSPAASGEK", "settings": "inhaled, 10^−3-10^−8M solutions"}, "[1]": {"molecular_target": "T2, VR1 receptors of nociceptive afferent neurons (Homo sapiens, UniProt Q8NER1)", "T2 construct": "selective stimulation of the VR1 receptors of nociceptive afferent neurons; from tissue; host or cells: nociceptive afferent neurons in vivo (skin, oral/nasal mucosa, airways, paravenous tissue)", "T2 sequence (Q8NER1 whole entry)": "as above", "settings": "for sensation elicited by application: applied to skin, oral or nasal mucosa, or subdermal tissue"}, "peripheral VR1 receptors": {"molecular_target": "T3, peripheral VR1 receptors (Homo sapiens, UniProt Q8NER1)", "T3 construct": "from tissue", "T3 sequence (Q8NER1 whole entry)": "as above"}, "[2]": {"molecular_target": "T2, VR1 receptors of nociceptive afferent neurons", "settings": "nasal instillation"}, "VR1 receptors": {"molecular_target": "T4, VR1 receptors (Homo sapiens, UniProt Q8NER1)", "T4 construct": "selective stimulation of the VR1 receptors of nociceptive afferent neurons; from tissue; host or cells: nociceptive afferent neurons in vivo (skin, oral/nasal mucosa, airways, paravenous tissue)", "T4 sequence (Q8NER1 whole entry)": "as above"}, "[3]": {"settings": "long term intranasal, 0.15 mg per nostril every 2-3 days, total dose 1.05 mg"}, "[4]": {"molecular_target": "T2, VR1 receptors of nociceptive afferent neurons", "settings": "ingestion; as little as"}, "[5]": {"settings": "repeated intravesical instillation, 1-2 mM, over five years"}, "[6]": {"test": "not given", "remark": "listed apart in the source"}}, "data": [{"smiles": "COc1cc(CNC(=O)CCCC/C=C/C(C)C)ccc1O", "note": "[capsaicin]", "values": [{"measurement": "immediate effect of inhalation", "setting": "bronchial VR1", "result": "sneezing, coughing, and airway constriction"}, {"measurement": "sensation elicited by application", "setting": "[1]", "result": "burning pain"}, {"measurement": "sensation following application of dermal cream", "setting": "[1]; dermal cream containing 0.075% capsaicin", "result": "burning pain sensation"}, {"measurement": "maximum tolerated dose (MTD)", "setting": "peripheral VR1 receptors; humans", "result": "approximately 4 μg/kg"}, {"measurement": "dose producing raw, burning sensation in chest, face, rectum and extremities", "setting": "peripheral VR1 receptors; injection directly into the superior vena cava", "result": "> 0.5", "unit": "µg/kg"}, {"measurement": "amount instilled giving nasal irritation and rhinorrhea", "setting": "[2]", "result": "75 to 150", "unit": "µg"}, {"measurement": "pain when injected directly into a vein", "setting": "VR1 receptors; injected directly into a vein, up to 650 μM", "result": "does not cause pain"}, {"measurement": "pain when injected intradermally", "setting": "VR1 receptors; intradermal injection", "result": "very severe pain"}, {"measurement": "low capsaicin doses to which paravenous tissue is highly sensitive", "setting": "VR1 receptors; paravenous tissue", "result": "0.3 to 6.5", "unit": "µM"}, {"measurement": "histological abnormalities", "setting": "[3]", "result": "no histological abnormalities"}, {"measurement": "absorption from the gastrointestinal tract", "setting": "oral administration", "result": "readily absorbed"}, {"measurement": "metabolism in the liver", "setting": "oral administration", "result": "almost completely metabolized"}, {"measurement": "amount ingested after which tongue and throat irritation occurs", "setting": "[4]", "result": 3, "unit": "ppm"}, {"measurement": "pathological tissue changes", "setting": "[5]", "result": "did not result in pathological tissue changes"}]}, {"smiles": "CCCCCCCC/C=C\\CCCCCCCC(=O)NCc1ccc(O)c(OC)c1", "note": "[olvanil]", "values": [{"measurement": "first pass metabolism", "setting": "in vivo", "result": "subject to first pass metabolism"}]}, {"smiles": "COc1ccc2c3c1O[C@H]1C(=O)CC[C@@]4(O)[C@@H](C2)N(C)CC[C@]314", "note": "[oxycodone]", "values": [{"measurement": "biological and therapeutic half-lives", "setting": "[6]; in vivo", "result": "very short"}, {"measurement": "bioavailability", "setting": "[6]; oral and intranasal administration", "result": "high"}]}, {"smiles": "C=C(C)[C@]12C[C@@H](C)[C@@]34O[C@](Cc5ccccc5)(O[C@@H]1[C@@H]3C=C(COC(=O)Cc1ccc(O)c(OC)c1)C[C@]1(O)C(=O)C(C)=C[C@@H]41)O2", "note": "[resiniferatoxin]", "values": [{"measurement": "sensation elicited by application", "setting": "[1]", "result": "burning pain"}]}]}
